These results are taken from ChEMBL document CHEMBL4665787, “Bifunctional and Unusual Amino Acid β- or γ-Ester Prodrugs of Nucleoside Analogues for Improved Affinity to ATB and Enhanced Metabolic Stability: An Application to Floxuridine” (J Med Chem, 2020).

Series [1] is described as follows: Selectivity ratio of substrate activity at SLC6A14 (unknown origin) expressed in Xenopus laevis oocytes assessed as ABT0+ mediated drug uptake to drug uptake in Xenopus laevis oocytes. The arrangement: species or system Oocyte.
The nature of series [2]: Ratio of AUC (0 to t) in NOD SCID nude mouse plasma xenografted with ZR-75-1 cells to AUC (0 to t) in NOD SCID mouse tumour xenografted with ZR-75-1 cells. The class given is ADME, cell-free, Tumor/Plasma.
Series [3] in a line: AUC (0 to t) in NOD SCID nude mouse plasma xenografted with ZR-75-1 cells at 90 mg/kg, iv measured up to 24 hrs by HPLC-MS/MS analysis. The series is classed as ADME, organism-based. The arrangement: route intravenous, dose 90 mg/kg, time <=24.
The nature of series [4]: Drug uptake in Xenopus laevis oocytes at 0.5 mM incubated for 10 mins by HPLC analysis. The class given is ADME, cell-based. To be noted: oocyte, 500 µM.
In a further series the test system is thymidine phosphorylase. In words: Half life of compound in thymidine phosphorylase buffer at 300 uM by HPLC analysis. The series is classed as physicochemical.
Series [5] in a line: Drug uptake in MDCK cells incubated for 10 mins by HPLC analysis. The class given is ADME, cell-based, Canis lupus familiaris. To be noted: dog, 500 µM, dose 0.5 mM.
Series [6] is described as follows: Half life of compound in human MDA-MB-231 cell homogenate. The series is classed as ADME, tissue-based.
For series [7], the target named is T1, Solute carrier family 15 member 1 (Homo sapiens, UniProt P46059).
T1 sequence (P46059 whole entry): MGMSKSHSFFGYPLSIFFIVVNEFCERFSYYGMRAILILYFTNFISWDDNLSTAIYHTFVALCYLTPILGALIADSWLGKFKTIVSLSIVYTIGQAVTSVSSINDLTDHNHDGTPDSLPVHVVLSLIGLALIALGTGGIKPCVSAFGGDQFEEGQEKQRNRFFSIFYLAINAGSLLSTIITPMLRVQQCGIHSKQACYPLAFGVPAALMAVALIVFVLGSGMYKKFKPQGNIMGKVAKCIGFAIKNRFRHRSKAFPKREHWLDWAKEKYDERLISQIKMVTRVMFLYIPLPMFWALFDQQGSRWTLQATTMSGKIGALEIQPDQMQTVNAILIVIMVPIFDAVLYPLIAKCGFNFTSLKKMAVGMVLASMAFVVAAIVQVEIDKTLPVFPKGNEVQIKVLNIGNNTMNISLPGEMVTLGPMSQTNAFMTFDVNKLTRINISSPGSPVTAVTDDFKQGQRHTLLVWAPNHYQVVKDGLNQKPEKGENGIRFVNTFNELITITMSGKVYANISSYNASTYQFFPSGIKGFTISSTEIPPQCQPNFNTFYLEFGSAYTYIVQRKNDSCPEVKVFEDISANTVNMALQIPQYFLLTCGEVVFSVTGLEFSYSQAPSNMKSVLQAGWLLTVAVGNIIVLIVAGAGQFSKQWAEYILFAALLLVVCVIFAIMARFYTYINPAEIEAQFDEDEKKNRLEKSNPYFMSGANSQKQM
In words: Substrate activity at PEPT1 (unknown origin) expressed in MDCK cells assessed as inhibition of gly-sar uptake incubated for 10 mins by HPLC/MS/MS analysis. The class given is cell-based.

Series [8] in a line: Toxicity in NOD SCID nude mouse xenografted with human MIA PaCa-2 cells assessed as body weight at 90 mg/kg, iv for 20 days (reference value: 28.4 +/- 2.1g). To be noted: in vivo, 480 h, time 20 day. The series is classed as organism-based. In general terms: Xenograft models place foreign cells or tissue in a host animal.
Series [9] in a line: Half life of compound in human MIA PaCa-2 cell homogenate. The class given is ADME, tissue-based.
Series [10] can be described thus: Toxicity in NOD SCID nude mouse xenografted with human MDA-MB-231 cells assessed as body weight at 90 mg/kg, iv for 20 days (reference value: 30.1 +/- 4.1g). To be noted: in vivo, 480 h, time 20 day. The series is classed as organism-based.
Series [11] is described as follows: Selectivity ratio of substrate activity at PEPT1 (unknown origin) expressed in MDCK cells assessed as PEPT1 mediated drug uptake to drug uptake in MDCK cells.
For a further series, the system named is MIA PaCa-2. Briefly: Antitumour activity against human MIA-PaCa-2 cells xenografted in NOD SCID nude mouse assessed as tumour inhibition at 90 mg/kg, iv administered for 20 days measured every 2 day by caliper method relative to control. The series is classed as functional. To be noted: MIA PaCa-2, iv, 480 h, time 20 day.
Series [12] is described as follows: AUC (0 to t) in NOD SCID nude mouse tumour xenografted with ZR-75-1 cells assessed as floxuridine; 5-fluoro-2-deoxyuridine AUC at 90 mg/kg, iv measured up to 24 hrs by HPLC-MS/MS analysis. The class given is ADME, organism-based, Neoplasm. To be noted: in vivo.
The test system of the next series is MDA-MB-231. In words: Antitumour activity against human MDA-MB-231 cells xenografted in NOD SCID nude mouse assessed as tumour inhibition at 90 mg/kg, iv administered for 20 days measured every 2 day by caliper method relative to control. The class given is functional. To be noted: MDA-MB-231, iv, 480 h, time 20 day.
For a further series, the system named is ZR-75-1. Briefly: Antitumour activity against human ZR-75-1 cells xenografted in NOD SCID nude mouse assessed as tumour inhibition at 90 mg/kg, iv administered for 20 days measured every 2 day by caliper method relative to control. The series is classed as functional. To be noted: ZR-75-1, iv, 480 h, time 20 day.
Series [13] addresses T1, Solute carrier family 15 member 1. In words: Substrate activity at PEPT1 (unknown origin) expressed in MDCK cells assessed as PEPT1 mediated drug uptake at 0.5 mM incubated for 10 mins by HPLC analysis. The series is classed as ADME, cell-based. To be noted: 500 µM.
Series [14] can be described thus: AUC (0 to t) in NOD SCID nude mouse plasma xenografted with ZR-75-1 cells assessed as fluorouracil AUC at 90 mg/kg, iv measured up to 24 hrs by HPLC-MS/MS analysis. The series is classed as ADME, organism-based. More on the design: route intravenous, dose 90 mg/kg, time <=24. To be noted: in vivo.
The target in series [15] is T2, Sodium- and chloride-dependent neutral and basic amino acid transporter B(0+) (Homo sapiens, UniProt Q9UN76).
T2 sequence (Q9UN76 whole entry): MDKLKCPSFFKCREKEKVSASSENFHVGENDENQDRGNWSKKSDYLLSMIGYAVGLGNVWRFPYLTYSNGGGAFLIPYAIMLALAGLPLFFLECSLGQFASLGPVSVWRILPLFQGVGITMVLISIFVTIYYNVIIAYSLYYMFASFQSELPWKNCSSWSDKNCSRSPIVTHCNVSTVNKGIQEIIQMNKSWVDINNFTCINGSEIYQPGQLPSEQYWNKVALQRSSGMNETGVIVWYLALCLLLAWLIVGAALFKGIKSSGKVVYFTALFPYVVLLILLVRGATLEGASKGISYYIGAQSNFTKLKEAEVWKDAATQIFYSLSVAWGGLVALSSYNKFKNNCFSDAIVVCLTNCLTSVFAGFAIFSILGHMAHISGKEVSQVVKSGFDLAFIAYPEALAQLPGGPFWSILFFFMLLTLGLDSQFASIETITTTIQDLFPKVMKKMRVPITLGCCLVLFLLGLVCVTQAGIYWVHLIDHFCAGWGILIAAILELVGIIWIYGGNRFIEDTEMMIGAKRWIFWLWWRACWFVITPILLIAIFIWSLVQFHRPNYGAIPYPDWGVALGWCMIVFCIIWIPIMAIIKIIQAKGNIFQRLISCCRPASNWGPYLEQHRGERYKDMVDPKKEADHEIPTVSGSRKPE
Briefly: Substrate activity at SLC6A14 (unknown origin) expressed in Xenopus laevis oocytes assessed as ABT0+ mediated drug uptake at 0.5 mM incubated for 10 mins by HPLC analysis. The series is classed as ADME, cell-based. To be noted: oocyte, 500 µM.

A short description of series [16]: Cmax in NOD SCID nude mouse plasma xenografted with ZR-75-1 cells assessed as fluorouracil at 90 mg/kg, iv measured up to 24 hrs by HPLC-MS/MS analysis. The series is classed as ADME, organism-based. More on the design: route intravenous, dose 90 mg/kg, time <=24. To be noted: in vivo.
Series [17] can be described thus: Toxicity in NOD SCID nude mouse xenografted with human ZR-75-1 cells assessed as body weight at 90 mg/kg, iv for 20 days (reference value: 29.2 +/- 2.5g). To be noted: in vivo, 480 h, time 20 day. The series is classed as organism-based.
The nature of series [18]: Half life of compound in human ZR-75-1 cell homogenate. The series is classed as ADME, tissue-based.
The nature of series [19]: Cmax in NOD SCID nude mouse tumour xenografted with ZR-75-1 cells assessed as floxuridine; 5-fluoro-2-deoxyuridine concentration at 90 mg/kg, iv measured up to 24 hrs by HPLC-MS/MS analysis. The class given is ADME, organism-based, Neoplasm. More on the design: route intravenous, dose 90 mg/kg, time <=24. To be noted: in vivo.
Compound in series [20]: N[C@@H](CC(=O)OC[C@H]1O[C@@H](n2cc(F)c(=O)[nH]c2=O)C[C@@H]1O)C(=O)O
In words: (§1) Substrate activity at SLC6A14 (unknown origin) expressed in Xenopus laevis oocytes assessed as Km by measuring ABT0+ mediated drug uptake incubated for 10 mins in presence of glycine by HPLC based Michaelis-Menten analysis. To be noted: Homo sapiens, Oocyte. The series is classed as cell-based.

Compound in series [21]: CC(C)[C@H](N)C(=O)OC[C@H]1O[C@@H](n2cc(F)c(=O)[nH]c2=O)C[C@@H]1O
Described as §1. The series is classed as cell-based. To be noted: Homo sapiens, Oocyte.

Compound in series [22]: N[C@@H](CCC(=O)OC[C@H]1O[C@@H](n2cc(F)c(=O)[nH]c2=O)C[C@@H]1O)C(=O)O
The description is as §1. The series is classed as cell-based. To be noted: Homo sapiens, Oocyte.

Compound in series [23]: N[C@@H](CC(=O)OC[C@H]1O[C@@H](n2cc(F)c(=O)[nH]c2=O)C[C@@H]1O)C(=O)O
Briefly: (§2) Substrate activity at SLC6A14 (unknown origin) expressed in Xenopus laevis oocytes assessed as Vmax by measuring ABT0+ mediated drug uptake incubated for 10 mins in presence of glycine by HPLC based Michaelis-Menten analysis. To be noted: Homo sapiens, Oocyte. The series is classed as cell-based.

Compound in series [24]: CC(C)[C@H](N)C(=O)OC[C@H]1O[C@@H](n2cc(F)c(=O)[nH]c2=O)C[C@@H]1O
The description is as §2. The class given is cell-based. To be noted: Homo sapiens, Oocyte.

Compound in series [25]: N[C@@H](CCC(=O)OC[C@H]1O[C@@H](n2cc(F)c(=O)[nH]c2=O)C[C@@H]1O)C(=O)O
Described as §2. The series is classed as cell-based. To be noted: Homo sapiens, Oocyte.

As to `O=c1[nH]c(=O)n([C@H]2C[C@H](O)[C@@H](CO)O2)cc1F` [FLOXURIDINE], the Ratio is given as 1 in series [1], 0.5 in series [2] and 1 in series [11]. Also, the AUC(0-t) (in general, exposure summed from dosing to a finite time, without extrapolation to infinity) at 24 h in series [3] amounted to 3420 ng·h/mL. Moreover, the Drug uptake in [4], in series [5], in series [13] and in [15] was under 0.04 nmol/mg/min each time. The half-life – broadly, the time needed for the level to fall by half in the phase considered – at 300 µM in the series on thymidine phosphorylase turned out to be 10.2 min. Also, the half-life came to 23.1 min in [6], 15.6 min in [9] and 13.2 min in [18]. Besides, the IC50 (as a rule, the concentration that gives 50% inhibition) in series [7] worked out at 12.2 mM. Moreover, the Activity in series [8] worked out at 24.7 g; in series [10] it was 28.4 g; in series [17], 25.8 g. In addition, the figures for the inhibition in vivo at 90 mg/kg in the series with MIA PaCa-2, in the series on MDA-MB-231 and in the series on ZR-75-1 were 41.3%, 36.9% and 36.1%, respectively. Also, the AUCt in series [12] stood at 1877.1 ng·h/g; in series [14], 4107.2 ng·h/mL. For the same molecule, the Cmax – broadly, the highest concentration seen after dosing – worked out at 434.1 ng/mL in series [16] and 374.4 ng/g in series [19].

B1: Sodium- and chloride-dependent neutral and basic amino acid transporter B(0+) (Homo sapiens), Q9UN76 (protein)
chain: T2 sequence (Q9UN76 whole entry)
As for B1, the results for the Km in series [20], in [21] and in series [22] were 35.6 µM, 54.6 µM and 84 µM, respectively. Besides, the Vmax (commonly the top rate of the reaction or transport when substrate is in excess) in [23] is 201 pmol/mg/min; in series [24], 278 pmol/mg/min; in series [25], 235 pmol/mg/min.
